Assay results published in patent US6414017B2, “Inhibition of hair growth” (The Gillette Company, priority 1993, dated 2002).

Tested on: hair growth of flank organs
Experiment: hamster flank organ hair mass assay (reduction of hair growth)
Format: in vivo, Male intact Golden Syrian hamsters
Conditions: for reducing hair growth (result in words): vehicle and test not given
Description: These organs produce hair in response to androgens in the hamster. To evaluate the effectiveness of a particular inhibitor in reducing hair growth, the flank organs of each of a group of hamsters are depilated by applying a thioglycolate based chemical depilatory (Surgex). To one organ of each animal 10 μl. of vehicle alone once a day is applied, while to the other organ of each animal an equal amount of vehicle containing the inhibitor is applied. After thirteen applications (one application per day for five days a week), the flank organs are shaved and the amount of recovered hair (hair mass) from each is weighed. […] Some preferred inhibitors were tested according to the above procedure.

[1] = Table 3: 5% in Vehicle A, pH 7.5
[2] = Table 3: 10% in Vehicle A, pH 7.5
[3] = Table 3: 10% in Vehicle F, pH 5.5
[4] = Table 3: 15% in Vehicle A, pH 7.5
[5] = Table 3: 20% in Vehicle A, pH 8.0
[6] = Table 3: 20% in Vehicle B, pH 7.0
[7] = Table 3: 20% in Vehicle F, pH 5.5

COc1ccc2cc(CCC(C)=O)ccc2c1 [Nabumetone, 4-[6-methoxy-2-naphthyl]-2-butanone]
Hair Mass Treated (Dose 15%, Vehicle E, pH 6.0, thirteen applications): 1.267 ± .23 mg | Percent Inhibition (Dose 15%, Vehicle E, pH 6.0, vs vehicle treated side): 23.23%

O=C(O)C=Cc1ccc(O)c(O)c1 [Caffeic acid, 3,4-dihydroxycinnamic acid]
Hair Mass Treated (Dose 15%, Vehicle H, pH 4.0, thirteen applications): 0.797 ± .13 mg | Percent Inhibition (Dose 15%, Vehicle H, pH 4.0, vs vehicle treated side): 62 ± 7% | reducing hair growth (result in words): effective in reducing hair growth

O=c1c(O)c(-c2ccc(O)c(O)c2)oc2cc(O)cc(O)c12 [Quercetin, 3,3′,4′,5,7-pentahydroxy flavone]
Hair Mass Treated (Dose 5%, Vehicle G, pH 6.0, thirteen applications): 1.100 ± .10 mg | Percent Inhibition (Dose 5%, Vehicle G, pH 6.0, vs vehicle treated side): 27 ± 6% | Hair Mass Treated (Dose 10%, Vehicle E, pH 5.5, thirteen applications): 0.419 ± .07 mg | Percent Inhibition (Dose 10%, Vehicle E, pH 5.5, vs vehicle treated side): 83 ± 4% | reducing hair growth (result in words): effective in reducing hair growth

COc1ccc2c(c1)c(CC(=O)O)c(C)n2C(=O)c1ccc(Cl)cc1 [Indomethacin, 1-[p-chlorobenzoyl]-5-methoxy-2-methylindole-3-acetic acid]
Hair Mass Treated [1]: 1.248 ± .20 mg | Percent Inhibition [1]: 43.41 ± 7.75% | Hair Mass Treated [2]: 1.084 ± .11 mg | Percent Inhibition [2]: 53.32 ± 4.17% | Hair Mass Treated [3]: 0.679 ± .08 mg | Percent Inhibition [3]: 49.89 ± 5.54% | Hair Mass Treated [4]: 0.768 ± .10 mg | Percent Inhibition [4]: 68.77 ± 3.02% | Hair Mass Treated [5]: 0.307 ± .08 mg | Percent Inhibition [5]: 83.78 ± 3.66% | Hair Mass Treated [6]: 0.261 ± .01 mg | Percent Inhibition [6]: 83.37 ± 1.46% | Hair Mass Treated [7]: 0.324 ± .08 mg | Percent Inhibition [7]: 78.43 ± 4.39%

CCCOC(=O)c1cc(O)c(O)c(O)c1 [Propyl gallate, propyl gallate]
reducing hair growth (result in words): effective in reducing hair growth

Cc1c(C)c2c(c(C)c1O)CCC(C)(CCCC(C)CCCC(C)CCCC(C)C)O2 (racemic) [dl-α-tocopherol]
reducing hair growth (result in words): effective in reducing hair growth

Cc1cccc(Nc2ccccc2C(=O)O)c1C [Mefenamic acid, 2-[(2,3-dimethylphenyl)amino]benzoic acid]
Hair Mass Treated (Dose 10%, Vehicle A, pH 8.8, thirteen applications): 0.518 ± .13 mg | Percent Inhibition (Dose 10%, Vehicle A, pH 8.8, vs vehicle treated side): 67.18%

CN1C(C(=O)Nc2ccccn2)=C(O)c2sccc2S1(=O)=O [Tenoxican, 4-hydroxy-2-methyl-N-2-pyridinyl-2H-thieno[2,3-e]-1,2-thiazine-3-carboxamide-1,1-dioxide]
Hair Mass Treated (Dose 15%, Vehicle B, pH 8.0, thirteen applications): 0.326 ± .08 mg | Percent Inhibition (Dose 15%, Vehicle B, pH 8.0, vs vehicle treated side): 85.38%

CC(C(=O)O)c1ccc2c(c1)[nH]c1ccc(Cl)cc12 (stereo not drawn) [Carprofen, 6-chloro-α-methylcarbazole-2-acetic acid]
Hair Mass Treated (Dose 20%, Vehicle C, pH 6.0, thirteen applications): 0.776 ± .11 mg | Percent Inhibition (Dose 20%, Vehicle C, pH 6.0, vs vehicle treated side): 29.69%

CC(Cc1ccc(O)c(O)c1)C(C)Cc1ccc(O)c(O)c1 (stereo not drawn) [NDGA, nordihydroguaiaretic acid]
Hair Mass Treated (Dose 10%, Vehicle B, pH 6.5, thirteen applications): 0.450 ± .11 mg | Percent Inhibition (Dose 10%, Vehicle B, pH 6.5, vs vehicle treated side): 81 ± 4% | reducing hair growth (result in words): effective in reducing hair growth

O=c1cc(-c2ccc(O)cc2)oc2cc(O)cc(O)c12 [apigenin, 4′,5,7-trihydroxy flavone]
reducing hair growth (result in words): effective in reducing hair growth
